Results reported in patent US9085520B2, “Composition for treating diabetes and metabolic diseases and a preparation method thereof” (KAOHSIUNG MEDICAL UNIVERSITY, priority 2011, dated 2015).
“Also recorded” adds a separate entry of the source.

Legend:
3T3-L1 adipocytes [1] = experiment: glucose consumption (remaining glucose) in culture medium of 3T3-L1 adipocytes; type: cell-based; conditions: for remaining glucose concentration in culture medium after 24 hours: culture medium of 3T3-L1 adipocytes after 24 hours, means ± SD, N = 3; for glucose absorption activity of adipocytes 3T3-L1 (anti-hyperglycemic ability): FIG. 1, medium glucose 300 mg/dl, remaining glucose after 24 hours
Description: After precursor adipocytes 3T3-L1 were induced as the matured adipocytes, culture medium with glucose (concentration of 300 mg/dl) and drugs were added, and the concentration of the remaining glucose in the culture medium were measured after 24 hours.
Adipose tissues are major sites for postprandial glucose uptake. Therefore, in vitro anti-diabetic screening model based on measuring glucose consumption after 24 hours in culture medium of 3T3-L1 adipocytes was developed. […] Accordingly, 60 chalcone derivatives with and without substitutions on A-ring were examined in our developed model. […] Structure-activity relationship (SAR) analyses data are also determined.

3T3-L1 adipocytes [2] = experiment: adipocyte death / toxicity to adipocytes; conditions: 30 μg/ml, matured 3T3-L1 adipocytes, 24 hours
C57BL/6 mice [3] = experiment: fasting blood glucose level of HF diet mice; type: in vivo; conditions: oral 6.75 mg/kg/day, 7 weeks, FIG. 3(a)
Description: (§1) Please refer to FIG. 2, C57BL/6 mice were grouped as four groups. (a) “Control” group (normal healthy animal group): the mice were fed with normal feed. (b) “High-fat (HF) diet” group (unhealthy negative control group): the mice were fed with high-fat-percentage feed (at least 40% fat) for a long-term period for inducing obesity and metabolic syndromes. (c) “HF diet+pioglitazone” group (clinical administration control group): the mice were fed with high-fat-percentage feed (at least 40% fat) for a long-term period for inducing obesity and metabolic syndromes and simultaneously administered with the clinically anti-diabetes TZD, pioglitazone (oral dosage: 6.75 mg/kg/day). […] The number of mice in the groups (a) to (d) were 5, 5, 6 and 13 respectively.
(§2) The numbers of mice in Experiment 4 were the same as in Experiment 3, and mice were divided as four groups, “control”, “HF diet”, “HF diet+pioglitazone” and “HF diet+compound 12” groups.

3T3-L1 adipocytes [4] = experiment: lipid droplet formation in 3T3-L1 adipocytes (Oil-Red O staining); type: cell-based; conditions: insulin 3.2×10^−7 M, RSZ, PIO, chalcone derivatives 30 μg/ml, DMEM 25 mM D-glucose, 4 days
Description: After two days of differentiation, 3T3-L1 cells were treated without (control) or with insulin (3.2×10^−7 M), RSZ (30 μg/ml), PIO (30 μg/ml), and chalcone derivatives (30 μg/ml) in DMEM containing 25 mM D-glucose. After 4 days, lipid droplets were observed by Oil-Red O staining (data not shown).

C57BL/6 mice [5] = experiment: body weight gain of high-fat diet induced obesity mice; type: in vivo; conditions: HF diet C57BL/6 mice
Description: as §1
(§3) The method and conditions for performing Experiment 7 were similar to those in Experiments 3 and 4, wherein C57BL/6 mice were grouped as five groups, (a) “Control” group (n=6), (b) “HF diet” group (n=7); (c) “HF diet+pioglitazone” group (oral dosage: 6.75 mg/kg/day pioglitazone, n=8); (d) “HF diet+compound 26×1” group: the mice were fed with high-fat-percentage feed (at least 40% fat) for a long-term period for inducing obesity and metabolic syndromes and simultaneously administered with compound 26 (oral dosage: 6.75 mg/kg/day, n=11); and (e) “HF diet+compound 26×5” group (oral dosage: 33.75 mg/kg/day compound 26, n=12).

C57BL/6 mice [6] = experiment: oral glucose tolerance test (OGTT) in HF diet mice; type: in vivo; conditions: 7 weeks
Description: as §2, §3

Compound | remaining glucose concentration in culture medium after 24 hours (3T3-L1 adipocytes [1]; 30 μg/ml, control 310 ± 4.0) [mg/dL] | adipocyte death / toxicity to adipocytes (3T3-L1 adipocytes [2]) | glucose absorption activity of adipocytes 3T3-L1 (anti-hyperglycemic ability) (3T3-L1 adipocytes [1]; 30 μg/ml) | other results
COc1ccc(/C=C/C(=O)c2ccccc2O)cc1 [Compound 1, (E)-1-(2-hydroxyphenyl)-3-(4-methoxyphenyl)prop-2-en-1-one] | 283 ± 21.4 | non-toxic |  | 
O=C(/C=C/c1ccccc1)c1ccc(O)cc1O [Compound 2, (E)-1-(2,4-dihydroxyphenyl)-3-phenylprop-2-en-1-one] | 273 ± 2.9 | lead to adipocyte death; also recorded: toxic | not significantly better than that in compound 9 | 
O=C(/C=C/c1ccc(OCc2ccccc2)cc1)c1ccc(O)cc1O [Compound 3, (E)-3-(4-(benzyloxy)phenyl)-1-(2,4-dihydroxyphenyl)prop-2-en-1-one] | 249 ± 12.2 | lead to adipocyte death; also recorded: toxic | not significantly better than that in compound 9 | 
COc1cccc(/C=C/C(=O)c2ccccc2O)c1 [Compound 4, (E)-1-(2-hydroxyphenyl)-3-(3-methoxyphenyl)prop-2-en-1-one] | 264 ± 7.8 | non-toxic |  | 
COc1ccc(/C=C/C(=O)c2ccc(O)cc2O)cc1 [Compound 5, (E)-1-(2,4-dihydroxyphenyl)-3-(4-methoxyphenyl)-prop-2-en-1-one] | 248 ± 0.4 | lead to adipocyte death; also recorded: toxic | not significantly better than that in compound 9 | 
COc1cccc(/C=C/C(=O)c2ccc(O)cc2O)c1 [Compound 6, (E)-1-(2,4-dihydroxyphenyl)-3-(3-methoxyphenyl)-prop-2-en-1-one] | 274 ± 12.1 | lead to adipocyte death; also recorded: toxic | not significantly better than that in compound 9 | 
O=C(/C=C/c1ccccc1)c1ccccc1 [Compound 9, (E)-chalcone] | 253 ± 9.9 | non-toxic | relatively similar | 
COc1ccc(/C=C/C(=O)c2ccccc2Br)cc1 [Compound 12, (E)-1-(2-bromophenyl)-3-(4-methoxyphenyl)prop-2-en-1-one] |  | didn't result in adipocyte death | best anti-hyperglycemic ability; also recorded: best activity | fasting blood glucose level (C57BL/6 mice [3]): significantly inhibit the increase of blood glucose level; also recorded: inhibition of the blood glucose level; formation of lipid droplets (3T3-L1 adipocytes [4]): significantly prevent the formation of lipid droplets; body weight gain (C57BL/6 mice [5]; oral dosage 6.75 mg/kg/day, FIG. 2): significantly inhibit the body weight gain; also recorded: inhibited; glucose intolerance (OGTT) (C57BL/6 mice [6]; HF diet mice, oral 6.75 mg/kg/day, FIG. 3(b), 6.75 mg/kg/day): significantly inhibit the occurrence of glucose intolerance; also recorded: inhibition of glucose intolerance
COc1ccc(/C=C/C(=O)c2ccccc2I)cc1 [Compound 26, (E)-1-(2-iodophenyl)-3-(4-methoxyphenyl)prop-2-en-1-one] |  | didn't result in adipocyte death | best anti-hyperglycemic ability | formation of lipid droplets (3T3-L1 adipocytes [4]): significantly prevent the formation of lipid droplets; body weight / obesity (C57BL/6 mice [5]; oral dosage 6.75 or 33.75 mg/kg/day, FIG. 5): significantly prevents obesity; also recorded: inhibited; glucose intolerance / insulin resistance (C57BL/6 mice [6]; HF diet C57BL/6 mice, oral dosage 6.75 or 33.75 mg/kg/day, FIG. 6): significantly prevents obesity and insulin resistance; also recorded: inhibition of glucose intolerance
O=C(/C=C/c1ccccc1)c1ccc(I)cc1 [Compound 58, (E)-1-(4-iodophenyl)-3-phenylprop-2-en-1-one] | 292 ± 5.3 |  |  | 
COc1ccc(/C=C/C(=O)c2ccc(I)cc2)cc1 [Compound 59, (E)-1-(4-iodophenyl)-3-(4-methoxyphenyl)prop-2-en-1-one] | 299 ± 3.8 |  |  | 
COc1cccc(/C=C/C(=O)c2ccc(I)cc2)c1 [Compound 60, (E)-1-(4-iodophenyl)-3-(3-methoxyphenyl)prop-2-en-1-one] | 274 ± 22.5 |  |  | 
CCc1ccc(CCOc2ccc(CC3SC(=O)NC3=O)cc2)nc1 (stereo not shown) [Pioglitazone, pioglitazone, reference compound] | 230 ± 13.5 |  |  | remaining glucose concentration in culture medium after 24 hours (3T3-L1 adipocytes [1]; 30 μg/ml, control 310 ± 4.0, listed as pioglitazone): 230 mg/dL
CN(CCOc1ccc(CC2SC(=O)NC2=O)cc1)c1ccccn1 (stereo not shown) [Rosiglitazone, rosiglitazone, reference compound] | 263 ± 23.9 |  |  | remaining glucose concentration in culture medium after 24 hours (3T3-L1 adipocytes [1]; 30 μg/ml, control 310 ± 4.0, listed as rosiglitazone): 263 mg/dL
Insulin: insulin, positive control in the adipocyte tests |  |  |  | formation of lipid droplets (3T3-L1 adipocytes [4]): increase the lipid droplets in adipocytes; glucose consumption (3T3-L1 adipocytes [1]; Experiment 6, insulin 3.2×10^−7 M, RSZ, PIO 30 μg/ml, DMEM 25 mM D-glucose): promote glucose consumption; remaining glucose concentration in culture medium after 24 hours (3T3-L1 adipocytes [1]; insulin 3.2 × 10^−17M): 294 ± 6.3 mg/dL
